Usually melting point stands for the temperature of the solid-liquid transition. In turn, `Cc1nc(CC(C)C)c(C(=O)O)s1` displayed a melting point of 116 to 118 °C.

Consider `NC(=O)c1ccc2[nH]cc(C3CCNCC3)c2c1`, for which the melting point lay within 149 to 151 °C. The same measure for `O=C(O)C1(c2cccc(C(F)(F)F)c2)CCC1`: 92 to 94 °C; for `Cn1ccnc1SCC(=O)O`: 88 to 90 °C.

Consider `NC(=O)NC(=O)CCCCl`, for which the melting point lay within 179 to 181 °C. For `O=C(O)CSc1ccsc1[N+](=O)[O-]` the value was 196 to 198 °C; for `CC1(c2ccc(Br)s2)NC(=O)NC1=O` (stereo unspecified), 184 to 186 °C. The same measure for `CNc1nc(CC(C)=O)ns1`: 298 to 300 °C; for `CCCC(=O)N1CCCC(C(=O)O)C1` (stereo unspecified): 96 to 98 °C; for `CC(C)n1ncc(C(N)=O)c1N`: 194 to 196 °C.

`Cc1cccc(-n2nnnc2S)c1C` showed a melting point of 115 to 117 °C. `Cc1ccccc1-c1noc(=O)[nH]1` returned a melting point of 155 to 157 °C. The same measure for `CC(C)N(C)S(=O)(=O)c1ccc(F)c(C(=O)O)c1`: 194 to 196 °C; for `NC(=S)c1cccc(NC(=O)C2CC2)c1`: 181 to 183 °C. The same measure for `NC(=O)c1ccc2c(c1)CCCC2`: 140 to 142 °C; for `NC(CC(=O)O)c1ccc(-c2ccccc2)cc1` (stereo unspecified): 238 to 240 °C. For the compound `Nc1nnc(SCc2ccc(F)cc2)s1`, the melting point lay within 145 to 147 °C. The same measure for `CN(C)C(=O)CSc1ccccc1C(=O)O`: below 17 °C; for `COc1ccccc1NC(=O)CCCCC(=O)O`: 82 to 84 °C; for `O=C(O)CC#Cc1ccccc1`: 71 to 73 °C. For `Cc1nnnn1C(Cc1ccccc1)C(=O)O` (stereo unspecified) the value was 167 to 169 °C; for `O=C(O)c1c2c(nc3ccccc13)C(=Cc1ccccc1Cl)CCC2`, 98 to 100 °C; for `Cc1cc2cc(Br)ccc2s1`, 69 to 71 °C. The same measure for `O=C1CCc2c(OCc3ccccc3)cccc21`: 71 to 73 °C. `NC(CCCO)c1ccccc1` (stereo unspecified) yielded a melting point of 72 to 74 °C.

On to `CCC(=O)c1c(C)nn(CCS(C)(=O)=O)c1C`, for which the melting point was in the range of 154 to 156 °C. The same measure for `CCC(CC)C(N)=S`: 55 to 57 °C; for `CC(C)NC(=O)NN`: 77 to 79 °C; for `Cc1oc2cc(O)ccc2c(=O)c1-c1ccccc1Cl`: 182 to 184 °C. In turn, `O=C(O)c1cc(Cl)ccn1` yielded a melting point of 170 to 174 °C.

As for `O=C1Nc2c(cc(F)cc2[N+](=O)[O-])C1=O`, the melting point was in the range of 176 to 178 °C.

The compound `Nc1ccc(N2CCSCC2)c(C(=O)O)c1` had a melting point of 263 to 265 °C. `COC(=O)Cc1c(C(=O)OC)sc2nc(CCl)[nH]c(=O)c12`: the melting point lay in the range of 208 to 210 °C.

`NC(=S)C1(NC(=O)c2ccccc2)CCCC1`: the melting point was 189 to 191 °C. The same measure for `OCCOc1cc(Cl)ccc1Cl`: 59 to 61 °C. The compound `Cc1c(C(=O)O)cccc1-c1ccccn1` registered a melting point of 211 to 213 °C. Regarding `Nc1cc(NC(=O)Cn2cccnc2=O)ccc1F`, the melting point was 251 to 253 °C. For `Cn1ncc(C(=O)O)c1C1CC1` the value was 104 to 106 °C; for `COc1ccccc1CNC(=O)C(C)Cl` (stereo unspecified), 113 to 115 °C. `O=C(O)c1cccnc1SCc1ccc(F)cc1` returned a melting point of 191 to 193 °C. The same measure for `O=C(CCl)N1CCCCCCC1`: 66 to 68 °C; for `Cc1cc(C)c(S(N)(=O)=O)cc1C(=O)O`: 252 to 254 °C; for `COc1c(Cl)cc(Br)cc1S(N)(=O)=O`: 214 to 216 °C. The same measure for `CC(=CC(=O)O)c1cccc(C(F)(F)F)c1`: 135 to 137 °C; for `Cc1ccc(Oc2ccc(N)cn2)cc1C`: 56 to 58 °C. For the compound `Cc1c(C(F)(F)F)cccc1S(N)(=O)=O`, the melting point was 149 to 151 °C. For `CC(C)(C)c1cc(C(=O)O)c(O)c(C(C)(C)C)c1` the value was 157 to 162 °C; for `CC(=O)N(C)c1ccccc1N`, 146 to 148 °C. The same measure for `COc1cccc(Nc2nnc(S)s2)c1`: 208 to 210 °C. The same measure for `O=c1ccc(=O)n(-c2ccc([N+](=O)[O-])cc2)[nH]1`: 308 to 310 °C; for `O=C(O)CN1C(=O)c2cc(Cl)c(Cl)cc2C1=O`: 309 to 311 °C; for `COc1ccc(CC2(C)NC(=O)NC2=O)cc1` (stereo unspecified): 196 to 198 °C. In the case of `CC1(C)OC(=O)C(=Cc2ccc(I)o2)C(=O)O1`, the melting point was 124 to 126 °C.

Consider `C=CCN=c1nn[nH]n1C`, for which the melting point lay in the range of 66 to 68 °C.

The compound `CC1Cc2ccccc2N1c1ccccc1C(=O)O` (stereo unspecified) returned a melting point of 124 to 126 °C. For `O=C(O)Cc1ccc(F)c(Br)c1` the value was 64 to 66 °C; for `O=C(CCl)Nc1ccc(OC(F)(F)F)cc1`, 71 to 74 °C; for `NC(=O)Cc1cccc(O)c1`, 114 to 116 °C.

Compound `CCOc1ccc(S(=O)(=O)Cl)cc1-c1ccccc1` showed a melting point of 78 to 80 °C.

For the compound `CCN(c1ccccc1)S(=O)(=O)c1cc(C(=O)O)ccc1C`, the melting point fell in the range of 160 to 162 °C. For `COc1ccc2c(C)cc(NN)nc2c1` the value was 250 to 252 °C; for `Cc1cc(C)c(NC(=O)C(C)Cl)c(Cl)c1` (stereo unspecified), 157 to 159 °C. The same measure for `Cn1cc(Nc2cccc(C(=O)O)c2)cn1`: 218 to 220 °C; for `COc1ccc(CC(=O)O)cc1F`: 110 to 112 °C. The same measure for `O=C(O)c1cccc(S(=O)(=O)NCc2ccccc2)c1`: 225 to 227 °C. Regarding `Nc1ccc(N)c(S(=O)(=O)Nc2ccccc2Cl)c1`, the melting point is 213 to 215 °C. For the compound `CS(=O)(=O)c1ccc(S(N)(=O)=O)cc1`, the melting point lay in the range of 246 to 248 °C.

`O=C(O)c1cc(Cl)c2ccccc2c1O`: the melting point lay in the range of 228 to 230 °C.

For `NC(=O)c1ccc(CSc2ccc(C(=O)O)cc2)cc1`, the melting point lay within 304 to 306 °C. With `c1c[nH]c(C2CCCN2)c1` (stereo unspecified), the melting point was in the range of 75 to 77 °C. The same measure for `N#Cc1ccccc1NC(=O)c1ccccn1`: 136 to 138 °C; for `Cc1cccc(-n2nnnc2S)c1`: 156 to 158 °C; for `ClCc1csc(-c2ccsc2)n1`: 64 to 66 °C. The same measure for `O=C(O)Cn1nnc(-c2ccco2)n1`: 216 to 218 °C; for `CC1(C)C2CCC1(CS(=O)(=O)F)C(=O)C2` (stereo unspecified): 79 to 81 °C. Regarding `CC1NCCn2c(Cl)ccc21` (stereo unspecified), the melting point was in the range of 53 to 55 °C.

`CC1(CCc2ccc(O)cc2)NC(=O)NC1=O` (stereo unspecified) gave a melting point of 192 to 194 °C. For `CC(=O)Nc1cc(S(=O)(=O)Cl)ccc1F` the value was 161 to 163 °C. The same measure for `c1ccc(-c2c[nH]c(C3CCCNC3)n2)cc1` (stereo unspecified): 93 to 95 °C; for `O=C1C=CC(=O)N1c1ccc(F)c(Cl)c1`: 159 to 161 °C; for `COc1cc(C)nc(CO)c1`: 69 to 71 °C. Turning to `COc1cc2c(cc1OC)C(c1ccccc1)N(C(=O)CCl)CC2` (stereo unspecified), the melting point was 218 to 222 °C. The same measure for `Cc1cn(-c2ccccc2)nc1N`: 119 to 121 °C.

On to `OCc1nc2ccccc2n1C(F)F`, for which the melting point lay in the range of 150 to 152 °C.

The compound `CC(C)=CC(=O)Nc1scc(-c2ccccc2)c1C(=O)O` had a melting point of 202 to 204 °C. The compound `CC(=O)CCc1ccc(OCC(=O)O)cc1` registered a melting point of 106 to 108 °C. `Nc1cc(-c2ccccc2F)no1`: the melting point lay within 118 to 120 °C. `COc1ccc(COc2cc(Br)ccc2C(F)(F)F)cc1` yielded a melting point of 32 to 34 °C. Compound `CCOC(=O)c1cc2c(F)cc(Br)cc2[nH]1` yielded a melting point of 194 to 196 °C. With `O=C(O)c1cnn2c1NCCC2`, the melting point was in the range of 141 to 143 °C. For `Cc1nn(C)c(C(F)(F)F)c1C(=O)O` the value was 213 to 215 °C; for `CCCN1C(=O)CNc2ccccc21`, 70 to 72 °C. The same measure for `O=C(O)CCSCc1cn2ccccc2n1`: 95 to 98 °C; for `O=C(O)CNC(=O)CNC(=O)c1ccco1`: 208 to 210 °C; for `CCn1cc(S(=O)(=O)Cl)c([N+](=O)[O-])n1`: 45 to 47 °C. For `COc1cc(C(=O)O)ccc1OCc1ccccn1` the value was 149 to 151 °C; for `COc1ccc(S(=O)(=O)Cl)c([N+](=O)[O-])c1`, 75 to 79 °C. On to `CCOc1ccccc1C(=O)CBr`, for which the melting point was 74 to 76 °C. The same measure for `O=C(O)CC(O)c1ccc(Cl)cc1` (stereo unspecified): 197 to 199 °C.

Turning to `NS(=O)(=O)c1ccc(Br)c([N+](=O)[O-])c1`, the melting point was 185 to 187 °C. As for `Nc1ccc(Br)cc1O`, the melting point fell in the range of 138 to 140 °C. `O=Cc1cnn(-c2ccc(Br)cc2)c1` displayed a melting point of 124 to 126 °C. For `COc1cc(C#N)c2ccccc2n1` the value was 133 to 135 °C; for `Cc1c[nH]c(=O)n1-c1cccc(C#N)c1`, 189 to 191 °C; for `CC(=O)c1ccc(S(=O)(=O)CC(F)(F)F)cc1`, 102 to 104 °C.

Regarding `O=C(O)Cc1ccc(-n2cccn2)cc1`, the melting point fell in the range of 130 to 132 °C. For `CC(C)(C)c1ccc(C2(CN)CCCC2)cc1` the value was 62 to 64 °C. For the compound `O=C(NC(Cc1ccccc1)C(=O)O)c1cccs1` (stereo unspecified), the melting point lay in the range of 202 to 204 °C. For `CCc1nnc2ccc(Cl)nn12` the value was 100 to 102 °C. The same measure for `COC(=O)c1cc(Cl)c(=O)[nH]c1C`: 239 to 241 °C; for `Nc1cc(C(F)(F)F)ccc1O`: 115 to 117 °C; for `NNC(=O)COc1ccc(Br)cc1`: 170 to 172 °C. `CC(=O)c1ccc2c3c(cccc13)CC2` returned a melting point of 58 to 60 °C.

`ClCc1cc2c(cc1Cl)OCCCO2` registered a melting point of 55 to 57 °C. On to `COC(=O)c1cc2ccc(Cl)cc2[nH]1`, for which the melting point is 181 to 183 °C. The same measure for `Cc1ccc(C)c(-c2n[nH]c(=O)c3ccccc23)c1`: 216 to 218 °C; for `Cc1nc(-c2ccccc2)ccc1C(=O)O`: 190 to 192 °C. For the compound `CC(C)(C)OC(=O)Nc1cc(N)c(F)cc1F`, the melting point was 117 to 119 °C.

`CCn1c(=O)c(=O)[nH]c2cc(C(=O)O)ccc21` displayed a melting point of 270 to 285 °C.

The compound `NN=c1ncc(F)c[nH]1` came in with a melting point of 119 to 121 °C. For `Oc1ccc2c(c1)OCC2O` (stereo unspecified) the value was 104 to 106 °C.

The values are drawn from a melting point compilation (Tetko et al.).
